The structures appear in SMILES notation. ≈ marks a conversion by molar mass, not a printed value.

We go through six compounds from patent publication US11092549B2, “Fluorescent probes for drug permeability in gram negative bacteria” (Saint Louis University, priority 2018, dated 2021).

The test system of assay [1] is E. coli strains BW25113, ΔEfflux, WT-Pore and ΔEfflux-Pore. The assay is described as follows: Fluorescence-based intracellular uptake of compounds in efflux-proficient, efflux-deficient and hyperporinated cells (FIG. 3). The conditions noted are these: when the cell envelope is compromised, excitation 335 nm. The protocol: For Hoechst or compound uptake experiments, overnight grown cells will be re-inoculated into 30 ml LB broth and grown until OD600 of 1. The cells will then pelleted by centrifugation for 15 min at room temperature and washed once in HMG buffer. The pellet will be resuspended in HMG buffer to OD600 of 2.0 and kept at room temperature during the course of the experiment. For the efflux inhibition or uptake kinetics, 100 μl of Hoechst or compound solution in HMG buffer with and without increasing concentrations of inhibitors at twice the concentrations indicated will be added into a black F-bottom non-binding 96-well plate. Fluorescence of Hoechst or compounds will be followed at λex=355 nm and λem=450 nm. To this, 100 μl of cells at OD600 of 2.0 was injected, shaken for 6 sec and the fluorescence of Hoechst will be monitored continuously for up to 10 min.
The inventors will use a fluorescence-based assay in which a fluorescent probe, a substrate of efflux pumps, reports EPI activities. Exponentially grown cells will be transferred into a defined medium, dispensed into 96-well plates with increasing concentrations of EPIs, and incubated for a pre-determined time. The probe will be added to cells and fluorescence recorded at different time points. Compounds with efflux inhibiting activities will increase the uptake of the probe and as a result increase the probe fluorescence (FIG. 3) (Abdali et al., 2017). The reverse kinetic curves, in which the concentration of the compound is fixed while the probe concentration varies, will be also collected. Detailed quantification of the kinetic data will be performed using two probes: a DNA dye Hoechst 33342 (HT) (Eicher et al., 2012; Nakashima et al., 2011 and Richmond et al., 2013) and a novel SLU-417 probe that were synthesized during a focused synthetic effort (Haynes et al., 2017). HT is a topoisomerase inhibitor with the MIC 2 μM in Δ6-Pore cells. In contrast, SLU-417 is relatively inert with MIC≥50 μM, which should reduce possible non-specific effect during drug uptake measurements.
Experiments were carried out in four E. coli strains, BW25113, a wild type strain with efflux pumps, ΔEfflux, a cell line in which the efflux pumps have been inactivated by removal of tolC gene and their hyperporinated variants WT-Pore and ΔEfflux-Pore. Four compounds were tested in these cell lines which show increased fluorescence intensity in cells in which the efflux pumps have been removed (FIG. 3).

Assay [2] concerns E. coli BW25113 and P. aeruginosa PAO1. The assay is described as follows: Screen of NCI Diversity sets for antibacterial and EPI activities, with profiling of actives. The format is cell-based. The source says:
The inventors screened NCI Diversity sets in E. coli BW25113 and P. aeruginosa PAO1 for antibacterial and EPI activities. From ˜2,000 compounds tested, the inventors identified 34 active compounds (Abdali et al., 2017). […] Synthetic procedures for modifying NSC 60339 has been described before (Abdali et al., 2017 and Gamage et al., 2013). Because clinically-important antibiotics are extensively optimized, the inventors have chosen to focus on fluoroquinolones, tetracyclines, oxazolidinones, phenicols and macrolides/ketolides representatives that are known to penetrate through both the LPS-phospholipid bilayer and porins of the OM and include both broad and narrow spectrum antibiotics.

Assay [3] relates to Δ6-Pore cells. Description: Minimal inhibitory concentration (MIC) of fluorescent probes. Format: cell-based, P. aeruginosa. From the text: For assessing antibacterial activities, compounds will be analyzed against four strains of P. aeruginosa: WT and ΔEfflux (lacking mexAB-OprM, mexCD-OprJ, mexXY), and their hyperporinated variants WT-Pore and ΔEfflux-Pore (FIGS. 2A-C) (Krishnamoorthy et al., 2016 and Krishnamoorthy et al., 2017). Based on minimal inhibitory concentrations (MIC) and growth IC50, compounds will be grouped as affected by efflux or by OM barriers. […] The inventors expect that at least 50% of the compounds in the library will have antibacterial activities in the hyperporinated efflux-deficient ΔEfflux-Pore. The -fold changes in MICs in the four strains will be used to guide selection of the compounds for detailed studies.
The inventors will use a fluorescence-based assay in which a fluorescent probe, a substrate of efflux pumps, reports EPI activities. Exponentially grown cells will be transferred into a defined medium, dispensed into 96-well plates with increasing concentrations of EPIs, and incubated for a pre-determined time. The probe will be added to cells and fluorescence recorded at different time points. Compounds with efflux inhibiting activities will increase the uptake of the probe and as a result increase the probe fluorescence (FIG. 3) (Abdali et al., 2017). […]

`COc1ccc(/C=C/C(=O)Nc2ccc(C3=NCCN3)cc2)cc1` [SLU-448]: the intracellular uptake entry in assay [1] is “increases”.
The same measure, in the same setting: next, `O=C(Nc1ccc(C2=NCCN2)cc1)c1cc2cc(Cl)ccc2o1` [SLU-843]: “increases”.
Regarding `O=C(Nc1ccc(C2=NCCN2)cc1)c1ccc(-c2cc(Cl)cc(Cl)c2)s1` [SLU-446], the intracellular uptake entry in assay [1] is “increases”.
For the compound `O=C(Nc1ccc(C2=NCCN2)cc1)c1ccc(C(=O)Nc2ccc(C3=NCCN3)cc2)c(Cl)c1` [NSC 60339], in assay [2], the “antibacterial and anti-MFP (Membrane Fusion Protein) activities” value was “have both antibacterial and anti-MFP”; the “substrate of efflux pumps” value is “modest substrate of efflux pumps”.
Broadly, the MIC is the least concentration at which growth counts as inhibited. Higher therefore signals a less susceptible organism. In assay [3] (Δ6-Pore cells), `CCOc1ccc(-c2nc3ccc(-c4nc5ccc(N6CCN(C)CC6)cc5[nH]4)cc3[nH]2)cc1` [HT, Hoechst 33342, reference compound] had an MIC of 2 µM (≈ 0.905 µg/mL).
With `CC(C)c1ccc(/C=C/C(=O)Nc2ccc(C3=NCCN3)cc2)cc1` [SLU-417], in assay [3] (Pseudomonas aeruginosa), the minimal inhibitory concentration (MIC) was at least 50 µM. Further, the intracellular uptake result in assay [1] is “increases”.
